Source: patent publication US20130315965A1, “HARMINE DERIVATIVES FOR PROMOTING BONE GROWTH” (OssiFi, Inc., priority 2012, published 2013)

Experiments:
[1] = target: T1, Sclerostin (Homo sapiens, UniProt Q9BQB4); experiment: luciferase Wnt pathway activity assay (inhibition of sclerostin by restoration of Wnt signaling); format: cell-based; settings: for identified as promoting bone growth (Wnt signaling / inhibition of sclerostin): human cells, luciferase Wnt pathway activity; for concentration at which compound inhibits sclerostin and restores normal Wnt activity (RLU): human embryonic cells, luciferase RLU, p<0.05
T1 construct: host or cells: human cells (reporter cells)
T1 sequence (Q9BQB4 24-213): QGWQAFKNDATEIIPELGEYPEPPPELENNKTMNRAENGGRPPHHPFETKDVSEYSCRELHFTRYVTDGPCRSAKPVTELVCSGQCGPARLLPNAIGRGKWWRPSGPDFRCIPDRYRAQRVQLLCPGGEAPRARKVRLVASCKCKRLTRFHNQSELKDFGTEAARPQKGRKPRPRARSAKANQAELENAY
Method: (§1) The Y axis represents Relative Light Units (RLU) which represents Wnt pathway signaling. Addition of Wnt (W) activates the Wnt pathway, while addition of Sclerostin (S) inhibits the Wnt pathway. Addition of Compound 1 inhibits sclerostin and restores normal Wnt activity at 3 μM. Asterisks represent statistically significant p<0.05.
as §1, with “2” for “1”, “10” for “3”
Briefly, human cells are treated with a predetermined dose of a candidate compound for a complete dosing schedule. Control vehicle treated cells are treated with a control solution, preferably a non-irritating buffer solution or other carrier. Once the dosing schedule has been completed, both test and control assays are examined for luciferase Wnt pathway activity to determine the quantity of Wnt signaling and thus inhibition of sclerostin.
Bars marked with a double asterisk indicate a significant difference as compared to S, but not as compared to W. Concentrations are indicated along the X axis in micromolar values.
Concentrations are indicated along the X axis in micromolar values.

[2] = test system: osteocalcin (OCN); experiment: Bone formation assay: osteocalcin (OCN) ELISA in cells treated with sclerostin and compound; format: cell-based, human
Excerpt: Bone formation can be assayed in vitro or in vivo using a serum marker for bone formation, osteocalcin (OCN). OCN is commercially available, e.g., from Biomedical Technologies, Inc. (Stoughton, Mass.). In one exemplary assay, using the manufacturer's protocol for the mouse osteocalcin EIA kit (described at http://www.btiinc.com/page/cata2/html#mouse_osteocalcin) bone formation in cells such as MC3T3 osteoblast cells can be assayed by measuring the concentration of OCN. An ELISA assay followed by spectrophotometer optical density (OD) readings to measure the concentration of OCN is used to detect the level of OCN secreted from cells, e.g., cells treated with a vehicle control, a sclerostin control, or with a combination of sclerostin and a compound as described herein. In some embodiments, the cells are treated with increasing doses of the control or compound.
Compound 2 was added in increasing amounts (0.13 μM-100 μM) with sclerostin at 1/8 volume.

identified as promoting bone growth (Wnt signaling / inhibition of sclerostin) [1] | concentration at which compound inhibits sclerostin and restores normal Wnt activity (RLU) [1] [µM] | Structure (SMILES) | effect on OCN induction blocked by sclerostin ([2]; 0.13 μM-100 μM compound with sclerostin at 1/8 volume) | stimulation of bone formation marker OCN versus vehicle-treated cells with No Sclerostin (NS) ([2]; 20 μM compound with Sclerostin at 1/8 volume)
identified as promoting bone growth | 3 | Cc1nc(O)cc2c1[nH]c1ccccc12 [Compound 1, 3-hydroxy-1-methyl-9H-pyrido[3,4-b]indole] | – | –
identified as promoting bone growth | 10 | COc1ccc(-c2nccc3c2[nH]c2ccccc23)cc1 [Compound 2, 1-(4-methoxyphenyl)-9H-pyrido[3,4-b]indole] | restoration of OCN activity that was blocked by sclerostin | stimulation of OCN well over that of the vehicle-treated cells
